The record followed here is PMC12569736 (Journal of Cosmetic Dermatology, 2025).

What is called IC50 is the concentration needed to halve the response being measured.

The test system of one series is B16‐F10 cells. As to the kind of experiment: Cell viability, B16‐F10. In kind it is cell-based, murine. Conditions: B16‐F10, 72 h, up to 50 μM. The protocol: B16‐F10, MNT‐1, and HaCaT cells (5000 cells/well) were seeded into 96‐well plates and incubated overnight. Culture medium (50 μL) containing varying concentrations of KT‐939 was added to each well, and cells were incubated for 72 h. Cell viability was assessed using the Cell Viability Assay Kit (Vazyme Biotech), following the manufacturer's instructions. Luminescence was measured using a Synergy H1 Hybrid Reader. DMSO‐treated cells served as the control, and survival rates were calculated and analyzed with GraphPad software.
B16‐F10, MNT‐1, and HaCaT cells were incubated with different concentrations of KT‐939 for 72 h. Cell viability was assessed and normalized to the DMSO‐treated control group.

Another series addresses T1, human tyrosinase (hTYR) (Homo sapiens, UniProt P14679).
T1 construct: tyrosinase enzyme solution derived from MNT‐1 cells; endogenous in cells; host or cells: MNT-1 human melanoma cell line (crude lysate supernatant)
T1 sequence (P14679 19-529): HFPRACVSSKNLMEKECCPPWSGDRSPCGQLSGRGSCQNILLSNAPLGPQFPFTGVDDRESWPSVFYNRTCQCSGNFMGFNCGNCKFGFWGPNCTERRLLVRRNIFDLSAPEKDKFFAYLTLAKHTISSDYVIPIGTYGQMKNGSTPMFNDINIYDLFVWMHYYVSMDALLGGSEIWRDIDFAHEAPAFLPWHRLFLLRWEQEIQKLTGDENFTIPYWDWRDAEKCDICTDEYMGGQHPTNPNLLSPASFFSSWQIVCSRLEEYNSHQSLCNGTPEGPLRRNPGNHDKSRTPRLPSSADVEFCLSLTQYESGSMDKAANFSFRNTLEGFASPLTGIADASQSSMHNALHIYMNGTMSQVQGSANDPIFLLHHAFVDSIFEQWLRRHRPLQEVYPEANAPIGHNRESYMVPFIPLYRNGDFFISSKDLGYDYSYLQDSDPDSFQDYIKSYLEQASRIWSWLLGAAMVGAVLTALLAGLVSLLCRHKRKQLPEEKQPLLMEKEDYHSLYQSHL
As to the kind of experiment: L‐DOPA oxidation assay for tyrosinase activity (MNT‐1 cell lysate). Type of series: biochemical. The protocol: The hTYR‐mediated L‐DOPA oxidation assay was performed according to Winder and Harris. MNT‐1 cells were resuspended in 0.05 M sodium phosphate buffer (pH 6.9) and sonicated for 1 min. After incubation on ice for 3–5 min, the mixture underwent a second sonication. The lysate was centrifuged at 13 000 rpm for 15 min at 4°C, and the supernatant was collected and kept on ice.
For the assay, 20 μL of crude enzyme solution and 80 μL sodium phosphate buffer were added to a 96‐well plate and centrifuged at 1000 rpm for 30 s. Subsequently, 2 μL of different concentrations of test compounds were added to each well, followed by centrifugation at 1000 rpm for 30 s. Finally, 100 μL L‐DOPA (final concentration 4 mM) was added to initiate the reaction. The microplate reader (Synergy H1 Hybrid Reader, BioTek) was used to monitor the reaction at 26°C, measuring absorbance at 475 nm every minute for 60 min. IC50 values were calculated using GraphPad software based on Vmax values from the kinetic curves.
The L‐DOPA tyrosinase assay was performed using a tyrosinase enzyme solution derived from MNT‐1 cells in 50 mM sodium phosphate buffer (pH 6.9), with a substrate (L‐DOPA) concentration of 4 mM and various concentrations of inhibitors as indicated. Data represent mean ± standard deviation of three independent experiments.

As for `CC1(C(=O)Nc2nc(-c3ccc(O)cc3O)cs2)COC1` [KT‐939, N‐(4‐(2,4‐Dihydroxyphenyl) Thiazol‐2‐yl)‐3‐Methyloxetane‐3‐Carboxamide], in the series on B16‐F10 cells, the “cytotoxicity (cell viability)” value is on record as “no significant cytotoxicity”. Moreover, on human tyrosinase (hTYR) (MNT‐1 lysate, L‐DOPA 4 mM, pH 6.9, read-out: IC50 against hTYR), the IC50 turned out to be 70 nM. The “inhibition of hTYR” value on human tyrosinase (hTYR) (at concentrations ≥ 0.4 μM) is given as “nearly complete inhibition”. The “fold greater hTYR potency than 4‐butylresorcinol” value at human tyrosinase (hTYR) (ratio of IC50, vs 4‐butylresorcinol) is given as around 100 fold. Further, the “fold greater hTYR potency than 377” value at human tyrosinase (hTYR) (ratio of IC50, vs 377) is “over 300 fold”. Also, the “fold greater hTYR potency than Thiamidol” value on human tyrosinase (hTYR) (ratio of IC50, vs Thiamidol) is given as ~ 4 fold. The “fold greater hTYR potency than resveratrol” value on human tyrosinase (hTYR) (ratio of IC50, vs resveratrol) was around 86 fold.
